Measurements reported in ChEMBL document CHEMBL4425166, “Discovery of Pyridinyl Acetamide Derivatives as Potent, Selective, and Orally Bioavailable Porcupine Inhibitors” (ACS Med Chem Lett, 2016).
pIC50: −log10 of the molar value. ≈ marks a conversion by molar mass, not a printed value. Values belong to the compound of their own block, whether it stands above or below them. Calls of active or inactive are those of the source. The calls are words filed in the database; no cut-off is given here.

Tests used:
Cytochrome P450 3A4 = Cytochrome P450 3A4 (Homo sapiens, UniProt P08684); assay: Inhibition of CYP3A4 (unknown origin); format: ADME
[1] = Clearance in rat by LC/MS/MS analysis; format: ADME; settings: in vivo
[2] = Terminal half life in Balb/c mouse at 2 mg/kg, iv or 5 mg/kg via oral gavage by LC/MS/MS analysis; format: ADME, organism-based; settings: in vivo, read-out: beta t1/2 (converted)
[3] = Protein binding in rat plasma by rapid equilibrium dialysis; format: ADME, cell-free; settings: read-out: PPB (converted)
[4] = Volume of distribution at steady state in Balb/c mouse at 2 mg/kg, iv after 24 hrs by LC/MS/MS analysis; format: ADME, organism-based; settings: in vivo, read-out: Vdss
[5] = Protein binding in mouse plasma by rapid equilibrium dialysis; format: ADME, cell-free; settings: read-out: PPB (converted)
Mus musculus [6] = assay: Antitumor activity in nude mouse MMTV-Wnt1 model assessed as tumor growth inhibition at 1 mg/kg, po qd administered for 2 weeks relative to control; format: functional
[7] = target: T1, Protein-serine O-palmitoleoyltransferase porcupine (Mus musculus, UniProt Q9JJJ7); assay: Inhibition of PORCN in […] overexpressing Wnt3A co-cultured with TM3 cells transfected with Wnt-luciferase gene after 24 hrs by luminescence assay; format: cell-based
T1 sequence (Q9JJJ7 whole entry): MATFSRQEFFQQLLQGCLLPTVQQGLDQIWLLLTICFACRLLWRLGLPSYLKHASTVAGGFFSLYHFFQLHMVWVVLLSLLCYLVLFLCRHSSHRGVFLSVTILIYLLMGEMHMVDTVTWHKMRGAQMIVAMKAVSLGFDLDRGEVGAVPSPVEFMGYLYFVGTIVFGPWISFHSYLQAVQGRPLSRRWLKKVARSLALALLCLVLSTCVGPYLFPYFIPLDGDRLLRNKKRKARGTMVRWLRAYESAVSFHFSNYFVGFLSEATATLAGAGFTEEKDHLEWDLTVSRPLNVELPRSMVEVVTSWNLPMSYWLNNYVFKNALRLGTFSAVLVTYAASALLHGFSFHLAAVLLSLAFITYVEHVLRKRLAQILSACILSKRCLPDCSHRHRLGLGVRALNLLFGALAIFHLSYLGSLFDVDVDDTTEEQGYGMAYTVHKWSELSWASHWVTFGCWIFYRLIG

[8] = Toxicity in nude mouse MMTV-Wnt1 model assessed as body weight loss at 0.3 to 3 mg/kg, po qd administered for 2 weeks measured during compound dosing; format: organism-based; settings: in vivo, 336 h
[9] = Aqueous solubility of compound in buffer of pH 6.8 after 24 hrs by UV-based high throughput assay; format: physicochemical
Mus musculus [10] = assay: Antitumor activity in nude mouse MMTV-Wnt1 model assessed as tumor growth inhibition at 3 mg/kg, po qd administered for 2 weeks relative to control; format: functional
[11] = Clearance in Balb/c mouse at 2 mg/kg, iv after 24 hrs by LC/MS/MS analysis; format: ADME, organism-based; settings: in vivo
[12] = Volume of distribution at steady state in rat by LC/MS/MS analysis; format: ADME; settings: in vivo, read-out: Vdss
[13] = Protein binding in dog plasma by rapid equilibrium dialysis; format: ADME, cell-free, Canis lupus familiaris; settings: read-out: PPB
Mus musculus [14] = assay: Inhibition of Axin2 mRNA level in nude mouse MMTV-Wnt1 model at 3 mg/kg administered as oral gavage measured after 24 hrs by RT-PCR analysis; format: functional, organism-based
[15] = Oral bioavailability in dog by LC/MS/MS analysis; format: ADME, organism-based, Canis lupus familiaris; settings: in vivo
[16] = Apparent permeability across apical to basolateral side of human Caco2 cells; format: ADME, cell-based; settings: Caco-2
[17] = Terminal half life in dog by LC/MS/MS analysis; format: ADME, Canis lupus familiaris; settings: in vivo, read-out: beta t1/2 (converted)
Cytochrome P450 2D6 = Cytochrome P450 2D6 (Homo sapiens, UniProt P10635); assay: Inhibition of CYP2D6 (unknown origin); format: ADME
[18] = Oral bioavailability in Balb/c mouse at 5 mg/kg via gavage by LC/MS/MS analysis; format: ADME, organism-based; settings: in vivo
Mus musculus [19] = assay: Inhibition of Axin2 mRNA level in nude mouse MMTV-Wnt1 model at 3 mg/kg administered as oral gavage measured at 5 hrs by RT-PCR analysis; format: functional
[20] = Terminal half life in rat by LC/MS/MS analysis; format: ADME; settings: in vivo, read-out: beta t1/2 (converted)
[21] = Protein binding in monkey plasma by rapid equilibrium dialysis; format: ADME, cell-free, Macaca mulatta; settings: rhesus monkey, read-out: PPB (converted)
[22] = Clearance in dog by LC/MS/MS analysis; format: ADME, Canis lupus familiaris; settings: in vivo
Mus musculus [23] = assay: Antitumor activity in nude mouse MMTV-Wnt1 model assessed as tumor growth inhibition at 0.3 mg/kg, po qd administered for 2 weeks relative to control; format: functional
Cytochrome P450 2C9 = Cytochrome P450 2C9 (Homo sapiens, UniProt P11712); assay: Inhibition of CYP2C9 (unknown origin); format: ADME
[24] = Volume of distribution at steady state in dog by LC/MS/MS analysis; format: ADME, Canis lupus familiaris; settings: in vivo, read-out: Vdss
[25] = Oral bioavailability in rat by LC/MS/MS analysis; format: ADME, organism-based; settings: in vivo
[26] = Efflux ratio of permeability in human Caco2 cells; format: ADME, cell-based; settings: Caco-2
[27] = Protein binding in human plasma by rapid equilibrium dialysis; format: ADME, cell-free; settings: read-out: PPB (converted)
Cytochrome P450 = assay: Inhibition of CYP450 (unknown origin) up to 10 uM; format: ADME, protein assay; settings: human
[28] = Dose normalized Cmax in Balb/c mouse at 5 mg/kg via oral gavage after 24 hrs by LC/MS/MS analysis; format: ADME, organism-based; settings: in vivo
[29] = Dose normalized AUC in Balb/c mouse at 5 mg/kg via oral gavage after 24 hrs by LC/MS/MS analysis; format: ADME, organism-based; settings: in vivo
[30] = target: T2, Protein-serine O-palmitoleoyltransferase porcupine (Homo sapiens, UniProt Q9H237); assay: Displacement of [3H]-GNF-1331 from human PORCN after 3 hrs by scintillation counting analysis
T2 sequence (Q9H237 whole entry): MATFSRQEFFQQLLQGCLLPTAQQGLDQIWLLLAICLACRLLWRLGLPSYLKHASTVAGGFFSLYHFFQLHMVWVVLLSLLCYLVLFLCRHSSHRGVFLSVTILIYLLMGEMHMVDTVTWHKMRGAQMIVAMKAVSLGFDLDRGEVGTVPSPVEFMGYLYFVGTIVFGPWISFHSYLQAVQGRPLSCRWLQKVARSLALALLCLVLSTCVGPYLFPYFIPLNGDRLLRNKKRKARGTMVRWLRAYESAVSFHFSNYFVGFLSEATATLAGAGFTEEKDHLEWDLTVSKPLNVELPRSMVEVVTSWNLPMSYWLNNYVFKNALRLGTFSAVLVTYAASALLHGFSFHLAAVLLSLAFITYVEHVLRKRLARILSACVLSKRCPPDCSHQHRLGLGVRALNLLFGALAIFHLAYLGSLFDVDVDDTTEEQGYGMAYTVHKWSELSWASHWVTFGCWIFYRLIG

Chain of Cytochrome P450 3A4 (P08684 whole entry): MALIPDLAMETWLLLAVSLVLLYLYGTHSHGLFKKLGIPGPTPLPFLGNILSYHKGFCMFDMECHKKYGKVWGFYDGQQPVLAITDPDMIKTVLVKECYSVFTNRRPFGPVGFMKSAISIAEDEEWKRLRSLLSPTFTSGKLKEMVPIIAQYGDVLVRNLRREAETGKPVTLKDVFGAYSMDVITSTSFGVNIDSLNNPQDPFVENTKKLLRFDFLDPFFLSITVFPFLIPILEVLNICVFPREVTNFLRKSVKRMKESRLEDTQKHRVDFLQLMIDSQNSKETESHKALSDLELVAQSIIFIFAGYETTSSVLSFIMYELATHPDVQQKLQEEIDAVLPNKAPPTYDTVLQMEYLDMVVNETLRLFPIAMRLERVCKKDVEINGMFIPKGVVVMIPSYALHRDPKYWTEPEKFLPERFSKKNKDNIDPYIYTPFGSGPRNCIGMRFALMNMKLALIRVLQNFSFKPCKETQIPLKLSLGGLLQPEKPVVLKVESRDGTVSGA
Chain of Cytochrome P450 2C9 (P11712 whole entry): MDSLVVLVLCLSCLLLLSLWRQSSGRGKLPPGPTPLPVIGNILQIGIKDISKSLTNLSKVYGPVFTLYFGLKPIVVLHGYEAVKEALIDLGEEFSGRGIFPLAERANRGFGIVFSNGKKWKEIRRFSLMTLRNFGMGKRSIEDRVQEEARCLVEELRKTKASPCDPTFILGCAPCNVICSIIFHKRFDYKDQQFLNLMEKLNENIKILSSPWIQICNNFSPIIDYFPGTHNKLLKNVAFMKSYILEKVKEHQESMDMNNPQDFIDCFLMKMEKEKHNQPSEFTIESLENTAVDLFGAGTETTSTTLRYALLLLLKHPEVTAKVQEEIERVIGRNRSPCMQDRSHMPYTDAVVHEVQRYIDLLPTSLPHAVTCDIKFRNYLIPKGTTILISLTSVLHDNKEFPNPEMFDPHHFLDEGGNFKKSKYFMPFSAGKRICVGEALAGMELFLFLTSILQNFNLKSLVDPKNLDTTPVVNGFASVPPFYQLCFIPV
Chain of Cytochrome P450 2D6 (P10635 whole entry): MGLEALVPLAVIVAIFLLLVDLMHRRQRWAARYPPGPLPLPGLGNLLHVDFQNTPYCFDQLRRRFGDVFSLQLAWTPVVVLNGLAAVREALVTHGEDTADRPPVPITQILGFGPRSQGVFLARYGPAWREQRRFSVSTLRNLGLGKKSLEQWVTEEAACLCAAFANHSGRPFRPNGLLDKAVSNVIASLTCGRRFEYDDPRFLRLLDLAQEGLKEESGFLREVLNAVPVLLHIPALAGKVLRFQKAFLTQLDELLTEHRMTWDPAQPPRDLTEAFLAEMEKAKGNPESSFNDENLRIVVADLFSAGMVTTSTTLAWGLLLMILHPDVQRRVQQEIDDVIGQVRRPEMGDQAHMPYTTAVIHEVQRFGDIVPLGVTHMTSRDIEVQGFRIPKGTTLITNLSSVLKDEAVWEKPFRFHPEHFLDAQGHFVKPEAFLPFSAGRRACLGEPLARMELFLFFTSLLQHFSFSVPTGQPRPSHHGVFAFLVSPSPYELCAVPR

pIC50 (Cytochrome P450 3A4): < 5.00 | clearance [1]: 5.35 mL/min/kg | half-life [2]: 2.44 h | fraction unbound [3]: 0.169 | Vd [4]: 0.57 L/kg | fraction unbound [5]: 0.12 | pIC50 [7]: 9.10 | solubility at 24 h [9]: 350 µM (≈ 157 µg/mL) | clearance [11]: 5.33 mL/min/kg | Vd [12]: 0.7 L/kg | fraction unbound [13]: 0.091 | bioavailability [15]: 72% | Papp A→B [16]: 7.5 ×10⁻⁶ cm/s | half-life [17]: 8.86 h | pIC50 (Cytochrome P450 2D6): < 5.00 | bioavailability [18]: 96% | half-life [20]: 2.77 h | fraction unbound [21]: 0.288 | clearance [22]: 0.67 mL/min/kg | pIC50 (Cytochrome P450 2C9): < 5.00 | Vd [24]: 0.25 L/kg | bioavailability [25]: 84% | efflux ratio [26]: 3.2 | fraction unbound [27]: 0.05
SMILES: CC(=O)N1CCN(c2ccc(NC(=O)Cc3cnc(-c4ccnc(F)c4)c(C)c3)nc2)CC1
T/C (Mus musculus [6]): -74% | Activity [8]: Non-Toxic | T/C (Mus musculus [10]): -84% | inhibition (Mus musculus [14]): inactive | inhibition in vivo at 3 mg/kg (Mus musculus [19]): 90% | T/C (Mus musculus [23]): 15%

pIC50 [7]: 9.70 | solubility at 24 h [9]: 6 µM (≈ 2.28 µg/mL)
SMILES: Cc1cc(-c2ccc(CC(=O)Nc3ccc(-c4ccccc4)cn3)cn2)ccn1

pIC50 [7]: 9.40 | solubility at 24 h [9]: 32 µM (≈ 12.7 µg/mL)
SMILES: Cc1cc(-c2ncc(CC(=O)Nc3ccc(-c4ccccn4)cn3)cc2C)ccn1

inhibition (INH) (Cytochrome P450): Not Active
SMILES: COc1ccc2nc(NC(=O)Cc3ccc(-c4ccnc(C)c4)cc3)sc2c1

pIC50 [7]: 8.26
SMILES: O=C(Cc1ccc(-c2ccncc2)cc1)Nc1nc(-c2ccccc2)cs1

solubility at 24 h [9]: > 175 µM
SMILES: COC(=O)N1CCN(c2ccc(NC(=O)Cc3cnc(-c4ccnc(C)c4)c(C)c3)nc2)CC1

solubility at 24 h [9]: 16 µM (≈ 6.12 µg/mL)
SMILES: Cc1cc(-c2ccc(CC(=O)Nc3ccc(-c4cnccn4)cn3)cn2)ccn1

Cmax/dose [28]: 14 nM | pIC50 [7]: 7.92 | AUC/dose [29]: 0.03 µM·h | pIC50 [30]: 8.10
SMILES: CCCn1c(SCC(=O)Nc2nc3ccc(OC)cc3s2)nnc1-c1ccncc1

solubility at 24 h [9]: 105 µM (≈ 42 µg/mL)
SMILES: Cc1cc(CC(=O)Nc2ccc(-c3cnccn3)cn2)cnc1-c1ccnc(F)c1

pIC50 [7]: < 5.00
SMILES: Cc1cc(-c2ccc(NC(=O)Nc3ccc(-c4ccccc4)cc3)cc2)ccn1

pIC50 [7]: 9.15 | solubility at 24 h [9]: < 2 µM
SMILES: Cc1cc(-c2ccc(CC(=O)Nc3ccc(-c4ccccc4)cn3)cc2)ccn1

pIC50 [7]: 9.15 | solubility at 24 h [9]: > 175 µM
SMILES: CC(=O)N1CCN(c2ccc(NC(=O)Cc3cnc(-c4ccnc(C)c4)c(C)c3)nc2)CC1

solubility at 24 h [9]: 17 µM (≈ 6.48 µg/mL)
SMILES: Cc1cc(-c2ccc(CC(=O)Nc3ccc(-c4ccccn4)cn3)cn2)ccn1

pIC50 [7]: < 5.00
SMILES: Cc1cc(-c2ccc(OC(=O)Nc3ccc(-c4ccccc4)cc3)cc2)ccn1

pIC50 [7]: 7.59
SMILES: Cc1cc(CC(=O)Nc2ccc(-c3cnccn3)cn2)cnc1-c1ccnc(CO)c1

pIC50 [7]: 9.40 | solubility at 24 h [9]: 210 µM (≈ 83.3 µg/mL)
SMILES: Cc1cc(-c2ncc(CC(=O)Nc3ccc(-c4cnccn4)cn3)cc2C)ccn1 [WNT-974]

pIC50 [7]: 7.62
SMILES: Cc1cc(CC(=O)Nc2ccc(N3CCNCC3)cn2)cnc1-c1ccnc(F)c1

pIC50 (Cytochrome P450 3A4): 6.10 | Cmax/dose [28]: 4100 nM | AUC/dose [29]: 26 µM·h | clearance [11]: 2.49 mL/min/kg
SMILES: COc1ccc2nc(NC(=O)Cc3ccc(-c4ccncc4)cc3)sc2c1

pIC50 [7]: 6.42
SMILES: COc1ccc2nc(C(=O)NCc3ccc(-c4ccncc4)cc3)sc2c1
